± gives the expanded uncertainty stated by the source.
Settings: for mass density: Liquid, isochoric method; for surface tension liquid-gas: Ring tensiometer

COC(F)(F)C(F)(F)C(F)(F)F [heptafluoropropyl methyl ether]
Settings	mass density [kg/m3]
209.16 K, 1147.7 kPa	1630.6 ± 1.5
215.36 K, 9581.3 kPa	1629.81 ± 1.5
219.53 K, 15297 kPa	1629.29 ± 1.5
220.04 K, 1236.5 kPa	1604.5 ± 1.5
223 K, 19918 kPa	1628.87 ± 1.5
223.03 K, 4963.4 kPa	1604.13 ± 1.5
227.03 K, 9963.9 kPa	1603.65 ± 1.5
231.15 K, 15085 kPa	1603.16 ± 1.5
231.6 K, 910.5 kPa	1576.15 ± 1.5
232.59 K, 2030.9 kPa	1576.04 ± 1.5
233.44 K, 3013 kPa	1575.94 ± 1.5
234.26 K, 3948.9 kPa	1575.84 ± 1.5
235.13 K, 20005 kPa	1602.69 ± 1.5
235.25 K, 5067.3 kPa	1575.72 ± 1.5
239.34 K, 25172 kPa	1602.2 ± 1.5
239.68 K, 10109 kPa	1575.21 ± 1.5
243.19 K, 29834 kPa	1601.75 ± 1.5
244.03 K, 15038 kPa	1574.72 ± 1.5
244.63 K, 1009.9 kPa	1544.86 ± 1.5
245.59 K, 1998.3 kPa	1544.75 ± 1.5
246.51 K, 2962.6 kPa	1544.65 ± 1.5
247.39 K, 3900.7 kPa	1544.55 ± 1.5
247.5 K, 35024 kPa	1601.26 ± 1.5
248.47 K, 20022 kPa	1574.22 ± 1.5
248.53 K, 5046.1 kPa	1544.43 ± 1.5
251.72 K, 40059 kPa	1600.78 ± 1.5
252.99 K, 25061 kPa	1573.71 ± 1.5
253.35 K, 10014 kPa	1543.89 ± 1.5
257.43 K, 29986 kPa	1573.22 ± 1.5
258.16 K, 14929 kPa	1543.37 ± 1.5
258.74 K, 1019.7 kPa	1509.93 ± 1.5
259.75 K, 1914.3 kPa	1509.82 ± 1.5
260.88 K, 2987.6 kPa	1509.7 ± 1.5
261.92 K, 3946.9 kPa	1509.59 ± 1.5
262 K, 34997 kPa	1572.72 ± 1.5
263.02 K, 19886 kPa	1542.85 ± 1.5
263.07 K, 5031.9 kPa	1509.47 ± 1.5
266.61 K, 40003 kPa	1572.21 ± 1.5
267.97 K, 24863 kPa	1542.32 ± 1.5
268.54 K, 10046 kPa	1508.89 ± 1.5
273.04 K, 29941 kPa	1541.78 ± 1.5
273.95 K, 14959 kPa	1508.34 ± 1.5
274.52 K, 994.4 kPa	1470.55 ± 1.5
275.72 K, 1967.2 kPa	1470.43 ± 1.5
276.99 K, 3007.5 kPa	1470.3 ± 1.5
278.09 K, 34925 kPa	1541.25 ± 1.5
278.24 K, 4016.2 kPa	1470.18 ± 1.5
279.44 K, 4996 kPa	1470.06 ± 1.5
279.44 K, 19959 kPa	1507.77 ± 1.5

Settings	surface tension liquid-gas [mN/m]
261.81 K	15.99 ± 0.32
261.89 K	15.89 ± 0.32
267.86 K	15.39 ± 0.31
267.87 K	15.34 ± 0.31
272.93 K	14.86 ± 0.3
272.95 K	14.85 ± 0.3
277.8 K	14.35 ± 0.3
277.82 K	14.4 ± 0.3

— the NIST ThermoML archive (doi:10.1021/je4004542)
